In article PMC11252418, “Specific glycine-dependent enzyme motion determines the potency of conformation selective inhibitors of threonyl-tRNA synthetase” (Communications Biology, 2024):
Several values for one entry are separate records, joined by “and”; a condition that tells them apart may be missing. Equal entries are not always repeated. Where two headings read alike, the source gives them in different places.

Columns and labels:
EcThrRS_G463A [1] = biological target: T1, EcThrRS_G463A (Escherichia coli, UniProt P0A8M3, G463A); assay: Thermal shift assay (TSA); assay type: binding
T1 construct: The E. coli ThrRS (residues 242-642, Supplementary Note 1) wild type; 6xHis (C); made in house; host or cells: E. coli BL21 (DE3)
T1 sequence (P0A8M3 242-642 G463A): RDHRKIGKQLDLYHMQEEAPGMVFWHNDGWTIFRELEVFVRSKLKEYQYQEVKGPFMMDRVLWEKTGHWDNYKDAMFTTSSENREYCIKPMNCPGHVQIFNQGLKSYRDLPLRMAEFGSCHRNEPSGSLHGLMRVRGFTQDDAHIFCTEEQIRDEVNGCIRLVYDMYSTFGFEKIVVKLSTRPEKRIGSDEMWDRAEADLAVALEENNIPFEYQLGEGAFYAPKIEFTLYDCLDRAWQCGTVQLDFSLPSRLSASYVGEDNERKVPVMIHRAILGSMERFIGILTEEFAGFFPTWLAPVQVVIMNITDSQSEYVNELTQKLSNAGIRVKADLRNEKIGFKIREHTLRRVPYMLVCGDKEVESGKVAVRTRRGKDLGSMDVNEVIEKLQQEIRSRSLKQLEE
Procedure: (§1) The EcThrRS_WT and L489M/G463S/G463S_Q484A/G463A/A316N mutant proteins, ObaO_WT and ObaO_S464G mutant proteins were prepared at 2 μM in buffer containing 25 mM Tris-HCl pH 7.5, 200 mM NaCl, and 20 μM OB (GlpBio, US) or BN (GlpBio, US) or ddH2O in equal volumes since the compounds were diluted with ddH2O to 1 mM as stocks. […] SYPRO orange dye (Sigma, USA) was diluted in assay buffer containing 25 mM Tris-HCl pH 7.5 and 200 mM NaCl to a 40× concentration, and was added to the mixture to a final 4× concentration. Aliquots (20 μL) were added to a 96-well PCR plate. After complete mixing, the final solutions were heated from 25 to 95 °C at a rate of 0.015 °C/s, and fluorescence signals were monitored by QuantStudio 3 (Applied Biosystems by Thermo Fisher Scientific, USA). The melting temperature (Tm) was calculated through a previously established method[56],[57].

EcThrRS_G463S [2] = biological target: T2, EcThrRS_G463S (Escherichia coli, UniProt P0A8M3, G463S); assay: Thermal shift assay (TSA); assay type: binding
T2 construct: The E. coli ThrRS (residues 242-642, Supplementary Note 1) wild type; 6xHis (C); made in house; host or cells: E. coli BL21 (DE3)
T2 sequence (P0A8M3 242-642 G463S): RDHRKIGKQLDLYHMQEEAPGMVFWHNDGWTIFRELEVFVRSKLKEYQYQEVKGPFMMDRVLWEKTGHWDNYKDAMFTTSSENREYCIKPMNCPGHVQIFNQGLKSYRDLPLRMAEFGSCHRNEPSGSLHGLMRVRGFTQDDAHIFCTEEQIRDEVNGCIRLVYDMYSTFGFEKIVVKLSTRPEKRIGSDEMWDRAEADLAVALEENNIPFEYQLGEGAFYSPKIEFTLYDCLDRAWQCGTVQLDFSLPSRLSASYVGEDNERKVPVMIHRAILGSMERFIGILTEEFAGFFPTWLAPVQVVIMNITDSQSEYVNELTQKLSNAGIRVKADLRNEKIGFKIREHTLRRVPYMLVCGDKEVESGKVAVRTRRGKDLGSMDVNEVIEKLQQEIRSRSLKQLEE
Procedure: as §1

EcThrRS_G463A [3] = biological target: T1, EcThrRS_G463A; assay: ATP hydrolysis assay; assay type: biochemical; details: for ATP hydrolysis activity, inhibitory curve data point: BN, replicates, sheet Fig.7d
Procedure: (§2) 200 nM EcThrRS wide type and mutants, ObaO and ObaO_S464G mutant were incubated with serially diluted OB (0 to 10 μM for EcThrRS, 0 to 40 μM for ObaO) in a buffer containing 25 mM HEPES pH 7.5, 50 mM NaCl, 40 mM MgCl2, 30 mM KCl, 0.01 mg/mL bovine serum albumin (BSA), and 0.004% Tween-20 at 37 °C for 4 h and then mixed 1:1 with a substrate mixture containing 4 μM ATP, 40 μM L-threonine, 25 mM HEPES pH 7.5, 50 mM NaCl, 40 mM MgCl2, 30 mM KCl, 0.01 mg/mL BSA, and 0.004% Tween-20. The ATP hydrolysis reaction was performed at 37 °C for 4 h.
(§3) After incubation, the detection solution from the Kinase-Glo® luminescent kit (Promega, USA) was added to the reaction system at a 1:1 ratio, and the mixture was gently shaken for 10 min. The chemiluminescence signal was measured using a microplate reader (Tecan, USA). All experiments were performed in four replicates. The data were processed using GraphPad Prism 8 software.

EcThrRS_G463S [4] = biological target: T2, EcThrRS_G463S; assay: ATP hydrolysis assay; assay type: biochemical
Procedure: as §2, §3

EcThrRS_WT = biological target: T3, EcThrRS_WT (Escherichia coli, UniProt P0A8M3); assay: ATP hydrolysis assay; assay type: biochemical; details: for ATP hydrolysis activity, inhibitory curve data point: BN, replicates, sheet Fig.7d
T3 construct: The E. coli ThrRS (residues 242-642, Supplementary Note 1) wild type; 6xHis (C); made in house; host or cells: E. coli BL21 (DE3)
T3 sequence (P0A8M3 242-642): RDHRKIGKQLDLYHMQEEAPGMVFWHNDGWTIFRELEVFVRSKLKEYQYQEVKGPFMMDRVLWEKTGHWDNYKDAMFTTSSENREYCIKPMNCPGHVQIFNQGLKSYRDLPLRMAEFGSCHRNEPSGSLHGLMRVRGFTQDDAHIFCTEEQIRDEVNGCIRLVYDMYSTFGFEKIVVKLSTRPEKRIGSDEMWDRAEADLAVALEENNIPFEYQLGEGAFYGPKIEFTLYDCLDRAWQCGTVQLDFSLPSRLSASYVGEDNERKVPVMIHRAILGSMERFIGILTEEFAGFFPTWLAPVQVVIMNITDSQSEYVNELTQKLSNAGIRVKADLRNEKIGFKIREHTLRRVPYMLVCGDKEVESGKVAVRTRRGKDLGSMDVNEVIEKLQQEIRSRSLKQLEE
Procedure: as §2, §3

EcThrRS_G463S [5] = biological target: T2, EcThrRS_G463S; assay: ATP hydrolysis assay; assay type: biochemical; details: BN, replicates, sheet Fig.7d
[6] = 2 μM protein, 20 μM compound, mean n = 4, read-out: ΔTm (increase of Tm)

C[C@@H]1C[C@H](C)C[C@H](C)[C@@H](O)CC(=O)O[C@H]([C@@H]2CCC[C@H]2C(=O)O)C/C=C/C=C(/C#N)[C@H](O)[C@@H](C)C1 [BN, borrelidin]
ΔTm at 20 µM (EcThrRS_G463A [1]; [6]): 19.1 °C | ΔTm at 20 µM (EcThrRS_G463A [1]; source data sheet Fig.7c, ThrRS_G463A, read-out: ΔTm, single replicates): 19.1 °C | ΔTm at 20 µM (EcThrRS_G463S [2]; [6]): 17.4 °C | ΔTm at 20 µM (EcThrRS_G463S [2]; source data sheet Fig.7c, ThrRS_G463S, read-out: ΔTm, single replicates): 17.3 °C | decrease of inhibitory effect vs EcThrRS_WT (EcThrRS_G463A [3]; 2 μM ATP and 20 μM L-Thr): more than 20 fold | ATP hydrolysis activity, inhibitory curve data point (EcThrRS_G463A [3]; Log10 Conc. 1.477, G463A): 95.000 and 86.999 and 114.196 and 92.149 | ATP hydrolysis activity, inhibitory curve data point (EcThrRS_G463A [3]; Log10 Conc. 2.000, G463A): 87.423 and 89.051 and 94.722 and 94.776 | ATP hydrolysis activity, inhibitory curve data point (EcThrRS_G463A [3]; Log10 Conc. 2.477, G463A): 87.400 and 82.253 and 93.320 and 93.112 | ATP hydrolysis activity, inhibitory curve data point (EcThrRS_G463A [3]; Log10 Conc. 3.000, G463A): 81.982 and 81.596 and 85.557 and 86.320 | ATP hydrolysis activity, inhibitory curve data point (EcThrRS_G463A [3]; Log10 Conc. 3.477, G463A): 63.653 and 64.234 and 69.634 and 68.650 | ATP hydrolysis activity, inhibitory curve data point (EcThrRS_G463A [3]; Log10 Conc. 4.000, G463A): 68.712 and 73.186 and 66.040 and 70.648 | decrease of inhibitory effect vs EcThrRS_WT (EcThrRS_G463S [4]; 2 μM ATP and 20 μM L-Thr): more than 20 fold | ATP hydrolysis activity, inhibitory curve data point (EcThrRS_G463S [4]; BN, Log10 Conc. 3.477, G463S, replicates, sheet Fig.7d): 72.021 and 67.252 and 61.642 and 63.732 | ATP hydrolysis activity, inhibitory curve data point (EcThrRS_WT; Log10 Conc. 1.477, WT): 101.322 and 78.096 and 79.643 and 84.982 | ATP hydrolysis activity, inhibitory curve data point (EcThrRS_WT; Log10 Conc. 2.000, WT): 101.576 and 82.194 and 100.286 and 100.117 | ATP hydrolysis activity, inhibitory curve data point (EcThrRS_WT; Log10 Conc. 2.477, WT): 72.956 and 78.844 and 97.078 and 88.856 | ATP hydrolysis activity, inhibitory curve data point (EcThrRS_WT; Log10 Conc. 3.000, WT): -7.239 and -12.609 and 12.089 and 13.133 | ATP hydrolysis activity, inhibitory curve data point (EcThrRS_WT; Log10 Conc. 3.477, WT): -29.715 and 1.779 and -2.712 and 18.045 | ATP hydrolysis activity, inhibitory curve data point (EcThrRS_WT; Log10 Conc. 4.000, WT): -14.823 and -17.346 and -12.025 and -9.555 | IC50 (EcThrRS_WT; in the presence of 2 μM ATP and 20 μM L-Thr): 559 nM | ATP hydrolysis activity, inhibitory curve data point (EcThrRS_G463S [5]; Log10 Conc. 1.477, G463S): 98.112 and 97.245 and 94.519 and 96.966 | ATP hydrolysis activity, inhibitory curve data point (EcThrRS_G463S [5]; Log10 Conc. 2.000, G463S): 96.048 and 91.632 and 90.284 and 92.020 | ATP hydrolysis activity, inhibitory curve data point (EcThrRS_G463S [5]; Log10 Conc. 2.477, G463S): 91.563 and 88.959 and 88.970 and 89.661 | ATP hydrolysis activity, inhibitory curve data point (EcThrRS_G463S [5]; Log10 Conc. 3.000, G463S): 84.928 and 77.254 and 80.440 and 82.267 | ATP hydrolysis activity, inhibitory curve data point (EcThrRS_G463S [5]; Log10 Conc. 4.000, G463S): 53.455 and 58.497 and 57.343 and 60.957
